Assay results as given in patent US12370183B2, “Compositions and methods for treating malaria” (Rutgers, The State University of New Jersey, priority 2020, dated 2025).
Like-named read-outs stand apart in the source and are kept apart here.

Legend:
[1] = tested on: 3D7 strain of Plasmodium falciparum; experiment: Potency in the 3D7 strain of Plasmodium falciparum (EC50); assay type: cell-based; details: for EC50: Plasmodium falciparum
Source text: (§1) The present invention relates to methods of treating malaria with tetrahydrobenzonaphtyridine carboxanilide (TBN) derivatives and related pyrrolinones and hydrolysis products thereof. These compounds are active against Plasmodium falciparum strains that are resistant to multiple drugs currently on the market. The present invention further relates to novel compounds and pharmaceutical compositions comprising such compounds. The compounds have been synthesized and tested for their potency in the 3D7 strain of Plasmodium falciparum. Their cytotoxicity was also tested in the BJ human fibroblast line. No compounds show significant cytotoxicity.
(§2) A high-throughput screen performed against the Plasmodium parasite. About 8,000 compounds were screened. Each hit was tested against resistant P. falciparum variants K1, V1S, D10DD, ATP4 1247, and C2B. Potency against these assays assured that the chemotype acts through a mechanism distinct from that of halofantrine, chloroquine, mefloquine, pyrimethamine, proguanil, atovaquone, and (+)SJ733. The toxicity of the compounds was also measured by testing their lethality against a BJ cell line (human fibroblasts). No TBNs were toxic. A structure activity investigation was performed in order to improve the EC50 of the TBNs to the single-digit nanomolar range, as well as to increase the water solubility.
(§3) Substituents were installed at N−2 by using a variety of methods. Reductive alkylation (Abdel-Magid, A. F.; Mehrman, S. J. A Review on the Use of Sodium Triacetoxyborohydride in the Reductive Amination of Ketones and Aldehydes. Org. Process Res. Dev. 2006, 10 (5), 971-1031) was a dependable technique that produced over fifteen analogues. Conjugate additions and nucleophilic substitutions provided most of the others. A type of reductive alkylation that uses carboxylic acids instead of aldehydes (the Beller reduction) led to two analogues (Sorribes, I.; Junge, K.; Beller, M. Direct Catalytic N-Alkylation of Amines with Carboxylic Acids. J. Am. Chem. Soc. 2014, 136 (40), 14314-14319. Some of the compounds listed were synthesized through other means, or were derived from other TBNs. Compounds 66 and 128 were produced by the amidation of acids 132 and 133, which had the corresponding substitution already installed. TBNs 93, and 94 were produced from the Pfitzinger products formed from the condensation of isatin with (R)-1-(1-phenylethyl)piperidin-4-one (134) and (S)-1-(1-phenylethyl)piperidin-4-one (135), respectively.

[2] = Solubility of the desbenzo analogue compared with 66; assay type: physicochemical
Description: For example, the melting point of 66 is 220° C. and the desbenzo analogue is 83.5° C.

[3] = tested on: resistant P. falciparum variant K1; experiment: Potency against resistant P. falciparum variant K1 (EC50); assay type: cell-based; details: Plasmodium falciparum, K1, read-out: K1 EC50 (μM)
Description: as §2, §3

in vitro = assay type: cell-based; details: human
Source text: as §1, §2

[4] = 3D7, read-out: 3D7 Mean EC50 (μM)

O=C(Nc1ccc(F)c(F)c1)c1ccnc2c1CN(Cc1ccccc1)CC2 [Compound 68, 6-Benzyl-N-(3,4-difluorophenyl)-5,6,7,8-tetrahydro-1,6-naphthyridine-4-carboxamide]
EC50 ([1]; 3D7): 3.48 µM | solubility, in words [2]: increased solubility versus 66

CC(c1ccccn1)N1CCc2nc3ccccc3c(C(=O)Nc3ccc(F)c(F)c3)c2C1 (stereo not drawn) [Compound 90, N-(3,4-Difluorophenyl)-2-(1-(pyridin-2-yl)ethyl)-1,2,3,4-tetrahydrobenzo[b][1,6]naphthyridine-10-carboxamide]
EC50 [3]: 0.0439 µM | EC50 (in vitro): > 11.7 µM | EC50 [1, 4]: 0.0603 ± 0.0234 µM

C=CCN1CCc2nc3ccccc3c(C(=O)Nc3ccc(F)c(F)c3)c2C1 [Compound 92, 2-Allyl-N-(3,4-difluorophenyl)-1,2,3,4-tetrahydrobenzo[b][1,6]naphthyridine-10-carboxamide]
EC50 [3]: 0.0719 µM | EC50 (in vitro): > 23.3 µM | EC50 [1, 4]: 0.128 ± 0.0238 µM

COC(=O)CCN1CCc2nc3ccccc3c(C(=O)Nc3ccc(F)c(F)c3)c2C1 [Compound 109, Methyl 3-(10-((3,4-difluorophenyl)carbamoyl)-3,4-dihydrobenzo[b][1,6]naphthyridin-2(1H)-yl)propanoate]
EC50 [3]: 0.487 µM | EC50 (in vitro): > 23.3 µM | EC50 [1, 4]: 0.673 ± 0.107 µM

CN(C)C(=O)CCN1CCc2nc3ccccc3c(C(=O)Nc3ccc(F)c(F)c3)c2C1 [Compound 110, N-(3,4-Difluorophenyl)-2-(3-(dimethylamino)-3-oxopropyl)-1,2,3,4-tetrahydrobenzo[b][1,6]naphthyridine-10-carboxamide]
EC50 [3]: 0.658 µM | EC50 (in vitro): > 23.3 µM | EC50 [1, 4]: 0.888 ± 0.459 µM

N#CCCN1CCc2nc3ccccc3c(C(=O)Nc3ccc(F)c(F)c3)c2C1 [Compound 113, 2-(2-Cyanoethyl)-N-(3,4-difluorophenyl)-1,2,3,4-tetrahydrobenzo[b][1,6]naphthyridine-10-carboxamide]
EC50 [3]: 2.05 ± 0.256 µM | EC50 (in vitro): > 23.3 µM | EC50 [1, 4]: 1.62 ± 1.25 µM

O=C1c2c3c(nc4cc(Cl)ccc24)CCN(CCc2ccccc2)C3N1c1ccc(Br)cc1 (stereo not drawn) [Compound 175, 2-(4-Bromophenyl)-8-chloro-3-phenethyl-2a,3,4,5-tetrahydrobenzo[b]pyrrolo[4,3,2-de][1,6]naphthyridin-1(2H)-one]
EC50 (in vitro): 15.2 ± 8.47 µM | EC50 [1, 4]: < 0.00192 µM

O=C1c2c3c(nc4ccc(Cl)cc24)CCN(CCc2ccccc2)C3N1c1cccc(Cl)c1 (stereo not drawn) [Compound 176, 9-Chloro-2-(3-chlorophenyl)-3-phenethyl-2a,3,4,5-tetrahydrobenzo[b]pyrrolo[4,3,2-de][1,6]naphthyridin-1(2H)-one]
EC50 (in vitro): > 24 µM | EC50 [1, 4]: < 0.00296 µM

COc1ccc(N2C(=O)c3c4c(nc5cc(Cl)ccc35)CCN(CCc3ccccc3)C42)cc1OC (stereo not drawn) [Compound 178, 8-Chloro-2-(3,4-dimethoxyphenyl)-3-phenethyl-2a,3,4,5-tetrahydrobenzo[b]pyrrolo[4,3,2-de][1,6]naphthyridin-1(2H)-one]
EC50 (in vitro): 9.32 ± 6.69 µM | EC50 [1, 4]: 0.00446 ± 0.002 µM

O=C1c2c3c(nc4cc(Cl)ccc24)CCN(CCc2ccccc2)C3N1c1ccc(Cl)cc1 (stereo not drawn) [Compound 179, 8-Chloro-2-(4-chlorophenyl)-3-phenethyl-2a,3,4,5-tetrahydrobenzo[b]pyrrolo[4,3,2-de][1,6]naphthyridin-1(2H)-one]
EC50 (in vitro): 22.6 ± 0.373 µM | EC50 [1, 4]: 0.0059 ± 0.002 µM

CCOCCN1CCc2nc3ccccc3c3c2C1N(c1ccc(F)c(F)c1)C3=O (stereo not drawn) [Compound 180, 2-(3,4-Difluorophenyl)-3-(2-ethoxyethyl)-2a,3,4,5-tetrahydrobenzo[b]pyrrolo[4,3,2-de][1,6]naphthyridin-1(2H)-one]
EC50 (in vitro): > 24 µM | EC50 [1, 4]: 0.0087 ± 0.001 µM

O=C1c2c3c(nc4ccc(Cl)cc24)CCN(CCc2ccccc2)C3N1c1ccc(Cl)cc1 (stereo not drawn) [Compound 181, 9-Chloro-2-(4-chlorophenyl)-3-phenethyl-2a,3,4,5-tetrahydrobenzo[b]pyrrolo[4,3,2-de][1,6]naphthyridin-1(2H)-one]
EC50 (in vitro): > 24 µM | EC50 [1, 4]: 0.0126 ± 0.002 µM

O=C1c2c3c(nc4ccc(Cl)cc24)CCN(CCc2ccccc2)C3N1c1ccc(Br)cc1 (stereo not drawn) [Compound 182, 2-(4-Bromophenyl)-9-chloro-3-phenethyl-2a,3,4,5-tetrahydrobenzo[b]pyrrolo[4,3,2-de][1,6]naphthyridin-1(2H)-one]
EC50 (in vitro): > 24 µM | EC50 [1, 4]: 0.0396 ± 0.017 µM

CC(=O)O[C@H]1CO[C@H]2[C@@H]1OC[C@@H]2Oc1cccc(N2C(=O)c3c4c(nc5ccccc35)CCN(CCc3ccccc3)C42)c1 (stereo partly drawn) [Compound 183, (3S,3aR,6S,6aR)-6-(3-(1-Oxo-3-phenethyl-2a,3,4,5-tetrahydrobenzo[b]pyrrolo[4,3,2-de][1,6]naphthyridin-2(1H)-yl)phenoxy)hexahydrofuro[3,2-b]furan-3-yl Acetate]
EC50 (in vitro): > 24 µM | improvement of potency by oxidation of the TBN to the pyrrolinone ([1]; 183 versus corresponding TBN 147): nearly a hundred-fold | EC50 ([1]; 3D7): 0.0407 µM | EC50 [1, 4]: 0.0407 ± 0.012 µM

N#Cc1cc(N2C(=O)c3c4c(nc5cc(Cl)ccc35)CCN(CCc3ccccc3)C42)ccc1F (stereo not drawn) [Compound 184, 5-(8-Chloro-1-oxo-3-phenethyl-2a,3,4,5-tetrahydrobenzo[b]pyrrolo[4,3,2-de][1,6]naphthyridin-2(1H)-yl)-2-fluorobenzonitrile]
EC50 (in vitro): > 24 µM | EC50 [1, 4]: 0.0437 ± 0.021 µM

COc1ccc(N2C(=O)c3c4c(nc5ccc(Cl)cc35)CCN(CCc3ccccc3)C42)cc1OC (stereo not drawn) [Compound 185, 9-Chloro-2-(3,4-dimethoxyphenyl)-3-phenethyl-2a,3,4,5-tetrahydrobenzo[b]pyrrolo[4,3,2-de][1,6]naphthyridin-1(2H)-one]
EC50 (in vitro): > 24 µM | EC50 [1, 4]: 0.049 ± 0.016 µM
